Earlier results, collected in patent US8455021B2, “Composition for prophylaxis or treatment of urinary system infection and method thereof” (priority 2006, dated 2013).

What was measured:
MMP-2 = conditions: Yu Cai et al., J pharm Pharmacol. 2003
MMP-9 = MMP-9 (Homo sapiens, UniProt P14780); conditions: Yu Cai et al., J pharm Pharmacol. 2003
Sequence of MMP-9 (P14780 94-707, species assumed): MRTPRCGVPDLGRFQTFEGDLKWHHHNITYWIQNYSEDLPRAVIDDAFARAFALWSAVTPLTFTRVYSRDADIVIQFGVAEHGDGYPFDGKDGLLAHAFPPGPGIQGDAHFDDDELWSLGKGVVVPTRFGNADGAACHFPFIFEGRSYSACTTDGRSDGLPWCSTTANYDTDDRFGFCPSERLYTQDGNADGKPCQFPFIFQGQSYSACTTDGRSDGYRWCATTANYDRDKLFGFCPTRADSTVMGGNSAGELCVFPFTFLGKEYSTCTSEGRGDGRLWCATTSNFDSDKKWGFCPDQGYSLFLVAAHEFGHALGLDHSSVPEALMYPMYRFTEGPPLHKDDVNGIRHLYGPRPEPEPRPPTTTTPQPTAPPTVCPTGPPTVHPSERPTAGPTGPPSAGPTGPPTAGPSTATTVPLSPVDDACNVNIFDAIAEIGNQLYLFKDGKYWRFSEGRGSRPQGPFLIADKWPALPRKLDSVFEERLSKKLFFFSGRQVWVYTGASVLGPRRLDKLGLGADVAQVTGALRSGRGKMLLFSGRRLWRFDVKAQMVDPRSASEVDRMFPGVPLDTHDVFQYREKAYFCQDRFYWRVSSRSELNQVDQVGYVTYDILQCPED

activity of matrix metalloproteinase MMP-2 (MMP-2): inhibits the activity | activity of matrix metalloproteinase MMP-9 (MMP-9): inhibits the activity
SMILES: C[C@@H]1O[C@@H](O[C@H]2C(=O)c3c(O)cc(O)cc3O[C@@H]2c2ccc(O)c(O)c2)[C@H](O)[C@H](O)[C@H]1O [astilbin]
